Common to all, as to assay type: physicochemical
Data set [1] is described as follows: Relative stability of crystalline forms, studies in dichloromethane, ethyl acetate, methanol and toluene. Particulars: compound II. As for the experimental part: Form B was obtained mainly from fast evaporations of ethyl acetate and methyl ethyl ketone, and from a solvent/antisolvent. […] Form A has a melting point of ˜177° C. and Form B has a melting point of ˜170° C.

A short description of data set [2]: Hygroscopicity of crystalline forms. The settings on record: crystalline solid.
The nature of data set [3]: Storage of Form C at high humidities. The settings on record: stored at high humidities. The text has this: and is observed when Form C is stored at high humidities. […] The lot used to generate this X-ray powder diffraction and Raman data may contain residual compound IV Form C.

Regarding `O=C(N1CC2CC(C1)c1cc([N+](=O)[O-])c([N+](=O)[O-])cc12)C(F)(F)F` [Compound II Form A, 1,5-Methano-1H-3-benzazepine-2,3,4,5-tetrahydro-7,8-dinitro-3-(trifluoroacetyl)], the “relative stability of crystalline forms” value in data set [1] (ambient temperature and 60° C., dichloromethane, ethyl acetate, methanol, toluene) is listed as “more stable than Form B”. The hygroscopicity entry in data set [2] is “non-hygroscopic”. Turning to `O=C(N1CC2CC(C1)c1cc([N+](=O)[O-])c([N+](=O)[O-])cc12)C(F)(F)F` [Compound II Form B, 1,5-Methano-1H-3-benzazepine-2,3,4,5-tetrahydro-7,8-dinitro-3-(trifluoroacetyl)], the “form conversion upon heating” value in data set [1] (upon heating) was “converts to Form A upon heating”. Turning to `O=C(N1CC2CC(C1)c1cc3nccnc3cc12)C(F)(F)F` [Compound III Form A, 6,10-Methano-6H-pyrazino[2,3-h][3]benzazepine,7,8,9,10-tetrahydro-8-(trifluoroacetyl)], the hygroscopicity entry in data set [2] is “non-hygroscopic”. For `c1cnc2cc3c(cc2n1)C1CNCC3C1` [Compound IV Form C], the “formation of N-carboxyvarenicline adduct on storage” value in data set [3] is “observed”.

These data come from patent US20100062046A1, “POLYMORPHS OF NICOTINIC INTERMEDIATES” (priority 2006, published 2010).
